Where two headings read alike, the source gives them in different places.
Legend:
[1] = tested on: breast cancer T47D cells; test: WST-1 cell viability assay, T47D; format: cell-based, human; details: for IC50: read-out: IC50 ± SD, T47D
Description: (§1) Evaluation of the effect of new betulin derivatives on the viability of the cultured cells was performed using the WST-1(water soluble tetrazolium salt) assay. Betulin 1 and cisplatin were used as the reference compounds.
(§2) The synthesized compounds and references were tested for cytotoxic activity in vitro against human cancer cell lines such as amelanotic melanoma (C-32, ATCC, Rockville, MD, USA), glioblastoma (SNB-19, DSMZ, Braunschweig, Germany), and breast cancer (T47D, and MDA-MB-231, ATCC, Rockville, MD, USA). Cell cultures were maintained using DMEM (Lonza, Basel, Switzerland) supplemented with 10% fetal bovine serum (FBS) (Biological Industries Cromwell, CT, USA) and penicillin (10,000 U/mL) –streptomycin (10 mg/mL) mix (Lonza, Basel, Switzerland).
(§3) Cultures were performed in 96-well plates (Nunc Thermo Fisher Scientific, Waltham, MA, USA). Cells were seeded at 5 × 10^4/well and incubated for 24 h (at 37 °C, 5% CO2, constant humidity). Then, the medium was replaced with a fresh one with the addition of test compounds in the concentration: 25; 12.5; 6.25; 3.12; 1.56; 0.78; 0.39; 0 µg/mL and incubated again for a further 72 h. After this time, the WST-1 test (Roche Molecular Biochemicals, Mannheim, Germany) was performed to assess the metabolic activity of the cells. The principle of the WST-1 colorimetric test is based on the ability of live cells to decompose bright red tetrazole salts of WST-1 to dark red formazan. The reaction is mediated by mitochondrial dehydrogenases and correlates with the number of cells and their metabolic activity. The absorbance was measured at λ = 450 nm with a UVM340 microplate reader (Biogenet, Józefów, Poland). Results were expressed as a mean value of at least three independent experiments performed in triplicate.

[2] = tested on: glioblastoma (SNB-19) cells; test: WST-1 cell viability assay, SNB-19; format: cell-based, human; details: for IC50: WST-1, 72 h
Description: as §1, §2, §3

[3] = tested on: breast cancer MDA-MB-231 cells; test: WST-1 cell viability assay, MDA-MB-231; format: cell-based, human; details: for IC50: WST-1, 72 h, read-out: IC50 ± SD, MDA-MB-231
Description: as §1, §2, §3

[4] = tested on: amelanotic melanoma (C-32) cells; test: WST-1 cell viability assay, C-32; format: cell-based, human; details: WST-1, 72 h
Description: as §1, §2, §3

[5] = RP-TLC experimental lipophilicity; format: physicochemical; details: for RM0 / logPTLC: RP-TLC; for RM0: acetone/Tris buffer pH 7.4, extrapolated to zero acetone; for logPTLC: from RM0 by calibration equation; for -b: slope of regression plot RM = RM0 + bC
From the text: Lipophilicity is an important physicochemical parameter related to the biological activity of compounds. This descriptor, contained in Lipiński’s rule of five, concerns the transport of a compound through the biological membrane system and the formation of a compound–receptor complex. To assess the lipophilic nature of triterpenoids 3–5, 6a–6e, and 7a–7e, the reverse phase chromatography (RP-TLC) method was used (chromatographic procedure by RP-TLC is included in the Supplementary Materials). The theoretical characteristics of the chromatographic parameters (RM0, log PTLC) of the tested derivatives were also performed. […]
Chromatographic procedure by RP-TLC
The experimental lipophilicity parameters was determined using reversed-phase thin-layer chromatography (RP-TLC). The stationary phase was an aluminium backed silica gel RP-18 F254 S plates (Merck, Darmstadt, Germany). Chloroform solutions of reference compounds […]
(acetanilide, 4-bromoacetophenone, benzophenone, anthracene, DDT) and triterpenes 3-5, 6a-6e and 7a-7e were spotted on to the plates in the amount of 2 µL. The chromatograms were performed in triplicate for each compound. The chromatographic chambers were filled of mobile phases consisting of a mixture of acetone (POCh, Gliwice, Poland) and aqueous solution of buffer Tris [(tris-hydroxymethyl)aminomethane] (Fluka, Loughborough, 0.2 M, pH 7.4). The percent acetone volume was varied within the range of 90-60%, in 5% increments. The spots of compounds were visualized by spraying the plates with 10% ethanolic solution of sulphuric acid (VI) and heating for 3 min at 110°C [60]]. The RM values were calculated by the equation RM = log (1/Rf-1) on the basis of average Rf values. The RM0 parameters were obtained by extrapolating on the acetone content to zero, according to the equation RM = RM0 + bC (C – the percentage concentration of acetone in the mobile phase, b – the slope of the regression plot).
The experimental lipophilicity as log PTLC for triterpenes 3-5, 6a-6e and 7a-7e was calculated […]
obtained on the correlation between the literature log Plit values and the experimental RM0 values […]
Table S5. The theoretical values of lipophilicity for tested compounds 3-5, 6a-6e and 7a- […]
Table S6. The correlation matrix for theoretically obtained lipophilicity parameters of compounds 3-5, 6a-6e and 7a-7e. […]

[6] = Homo sapiens, SNB-19, 72 h, read-out: IC50 ± SD, SNB-19
[7] = Homo sapiens, C32, 72 h, read-out: IC50 ± SD, C-32
[8] = Homo sapiens, SNB-19, 72 h, Table 5, betulonic/betulinic acid derivatives, read-out: IC50, SNB-19
[9] = Homo sapiens, C32, 72 h, Table 5, betulonic/betulinic acid derivatives, read-out: IC50, C-32

SMILES: C=C(C)[C@@H]1CC[C@]2(CO)CC[C@]3(C)[C@H](CC[C@@H]4[C@@]5(C)CC[C@H](O)C(C)(C)[C@@H]5CC[C@]43C)[C@@H]12 [Betulin]
- IC50 ([1]; Homo sapiens, T47D, WST-1, 72 h): > 50 µM
- IC50 ([2]; Homo sapiens, SNB-19, read-out: IC50 ± SD, SNB-19): 9.93 ± 0.25 µM
- IC50 ([3]; Homo sapiens, MDA-MB-231): 7.76 ± 1.87 µM
- IC50 ([4]; Homo sapiens, C32, read-out: IC50 ± SD, C-32): 15.6 ± 1.11 µM

SMILES: N.N.[Cl][Pt][Cl] [Cisplatin, reference compound]
- IC50 ([1]; WST-1, 72 h): 6.26 ± 1.24 µM
- IC50 ([2]; read-out: IC50 ± SD, SNB-19): 5.29 ± 0.12 µM
- IC50 [3]: 5.47 ± 0.05 µM
- IC50 ([4]; read-out: IC50 ± SD, C-32): 4.29 ± 0.65 µM

SMILES: C=C(CO)[C@@H]1CC[C@]2(COC(C)=O)CC[C@]3(C)C(CCC4[C@@]5(C)CC[C@H](OC(C)=O)C(C)(C)C5CC[C@]43C)C12 (stereo partly shown) [Compound 3, 3,28-Diacetyl-30-hydroxybetulin]
- RM0 [5]: 5.655
- logPTLC [5]: 7.362
- -b [5]: 0.064

SMILES: C#CC(=O)OC[C@]12CC[C@@H](C(=C)COP(=O)(OCC)OCC)C1C1CCC3[C@@]4(C)CC[C@H](OC(=O)C#C)C(C)(C)C4CC[C@@]3(C)[C@]1(C)CC2 (stereo partly shown) [Compound 6a, 30-Diethoxyphosphoryloxy-3,28-dipropynoylbetulin]
- IC50 ([1]; Homo sapiens, T47D, 72 h): 9.5 ± 0.74 µM
- melting point: 127 to 130 °C
- RM0 [5]: 6.893
- logPTLC [5]: 8.929
- -b [5]: 0.080

SMILES: C#CCOC(=O)OC[C@]12CC[C@@H](C(=C)COP(=O)(OCC)OCC)C1C1CCC3[C@@]4(C)CC[C@H](OC(=O)OCC#C)C(C)(C)C4CC[C@@]3(C)[C@]1(C)CC2 (stereo partly shown) [Compound 6e, 30-Diethoxyphosphoryloxy-3,28-dipropargyloxycarbonyloxybetulin]
- IC50 ([1]; Homo sapiens, T47D, 72 h): > 50 µM
- IC50 [2, 6]: 9.23 ± 0.57 µM
- melting point: 129 to 131 °C
- IC50 [4, 7]: 11.4 ± 0.76 µM
- RM0 [5]: 6.490
- logPTLC [5]: 8.419
- -b [5]: 0.076

SMILES: C#CCOC(=O)OC[C@]12CC[C@@H](C(=C)COP(=O)(OCC)OCC)C1C1CCC3[C@@]4(C)CC[C@H](O)C(C)(C)C4CC[C@@]3(C)[C@]1(C)CC2 (stereo partly shown) [Compound 7e, 30-Diethoxyphosphoryloxy-28-propargyloxycarbonyloxybetulin]
- IC50 ([1]; Homo sapiens, T47D, 72 h): > 50 µM
- IC50 [2, 6]: 1.59 ± 0.09 µM
- melting point: 172 to 174 °C
- IC50 [4, 7]: 3.97 ± 0.86 µM
- RM0 [5]: 5.302
- logPTLC [5]: 6.916
- -b [5]: 0.063

SMILES: C=C(COP(=O)(OCC)OCC)[C@@H]1CC[C@]2(C(=O)O)CC[C@]3(C)C(CCC4[C@@]5(C)CCC(=O)C(C)(C)C5CC[C@]43C)C12 (stereo partly shown) [Compound 8]
- activity against T47D (in words) [1]: no activity
- IC50 [2, 8]: 45.8 ± 5.27 µM
- activity against MDA-MB-231 (in words) [3]: no activity
- IC50 [4, 9]: 45.7 ± 6.85 µM

SMILES: C=C(COP(=O)(OCC)OCC)[C@@H]1CC[C@]2(C(=O)O)CC[C@]3(C)C(CCC4[C@@]5(C)CCC(O)C(C)(C)C5CC[C@]43C)C12 (stereo partly shown) [Compound 9]
- activity against T47D (in words) [1]: no activity
- IC50 [2, 8]: 5.98 ± 0.43 µM
- IC50 fold higher than 30-phosphonate derivative of 3-acetylbetulinic acid ([2]; SNB-19): more than 4.5 fold
- activity against MDA-MB-231 (in words) [3]: no activity
- IC50 [4, 9]: > 50 µM

SMILES: CCOP(=O)(C=C(C)C1CCC2(C(=O)O)CCC3(C)C(CCC4C5(C)CCC(=O)C(C)(C)C5CCC43C)C12)OCC (stereo not shown) [R=29-P(O)(OC2H5)2, R1=O=, reference compound]
- IC50 [2, 8]: 1.64 ± 0.18 µM
- IC50 [4, 9]: 45.5 ± 3.72 µM

SMILES: CCOP(=O)(C=C(C)C1CCC2(C(=O)O)CCC3(C)C(CCC4C5(C)CCC(O)C(C)(C)C5CCC43C)C12)OCC (stereo not shown) [R=29-P(O)(OC2H5)2, R1=OH, reference compound]
- IC50 [2, 8]: 7.67 ± 1.57 µM
- IC50 [4, 9]: 47.5 ± 2.96 µM

SMILES: C=C(CP(=O)(OCC)OCC)[C@@H]1CC[C@]2(C(=O)O)CC[C@]3(C)C(CCC4[C@@]5(C)CCC(OC(C)=O)C(C)(C)C5CC[C@]43C)C12 (stereo partly shown) [R=30-P(O)(OC2H5)2, R1=CH3C(O)O, reference compound]
- IC50 [2, 8]: 1.29 ± 0.15 µM
- IC50 [4, 9]: 30.7 ± 2.17 µM

SMILES: C=C(CP(=O)(OCC)OCC)[C@@H]1CC[C@]2(C(=O)O)CC[C@]3(C)C(CCC4[C@@]5(C)CCC(O)C(C)(C)C5CC[C@]43C)C12 (stereo partly shown) [R=30-P(O)(OC2H5)2, R1=OH, reference compound]
- IC50 [2, 8]: > 50 µM
- IC50 [4, 9]: > 50 µM

SMILES: C=C(C)[C@@H]1CC[C@]2(C(=O)O)CC[C@]3(C)[C@H](CC[C@@H]4[C@@]5(C)CC[C@H](O)C(C)(C)[C@@H]5CC[C@]43C)[C@@H]12 [betulinic acid, reference compound]
- IC50 ([2]; Homo sapiens, SNB-19, Table 5, betulonic/betulinic acid derivatives, read-out: IC50, SNB-19): 20.1 ± 1.26 µM
- IC50 ([4]; Homo sapiens, C32, Table 5, betulonic/betulinic acid derivatives, read-out: IC50, C-32): 8.63 ± 0.9 µM

— paper PMC7866984, “Molecular Structure, In Vitro Anticancer Study and Molecular Docking of New Phosphate Derivatives of Betulin” (Molecules, 2021)
